Measured values as given in US5117037A, “Cis-bicyclo[4,3.0]non-2-end derivatives” (Sagami Chemical Research Center Toa Eiyo Ltd., priority 1989, dated 1992).
pIC50: −log10 of the molar value.

How the values were obtained:
[1] = test system: platelet aggregation (ADP-induced); assay: Platelet anti-aggregatory activities, ADP-induced aggregation of washed platelet suspension; format: cell-based, Japanese white male rabbits; settings: for pIC50: Oryctolagus cuniculus, 0.05 h, rabbit platelet suspension, 3 min preincubation, read-out: Platelet anti-aggregatory activities ED50, ADP (concentration inhibiting 50% of the platelet aggregation); for activity ratio, ADP (PGI2 = 1): ratio of ED50 relative to PGI2
Description: (§1) Japanese white male rabbits having a weight of from 2.0 to 2.5 kg were used.
(§2) Under anesthesia with pentobarbital sodium, blood was collected from the carotid artery and mixed with citric acid dextrose solution (1/7 volume) as an anticoagulant. Then, the mixture was subjected to centrifugal separation at 140 ×g for 15 minutes, whereupon the supernatant (platelet rich plasma: PRP) was collected. PRP was subjected to centrifugal separation at 1,300 ×g for 7 minutes, and platelet pellets thereby obtained were washed with a HEPES buffer solution (pH 6.5) for washing platelets and then subjected to centrifugal separation at 1,300 ×g for 7 minutes. The platelet pellets were washed twice under the same conditions and then suspended in a suspending solution (prepared by adding 0.1% […] for washing platelets) to make a platelet suspension containing from 5 to 8×10^8 platelets/ml. An aggregation meter was used for the measurement of the platelet aggregatory ability. To 380 μl of the platelet suspension, 10 μl of a test compound or a solvent as control was added. Three minutes later, 10 μl of a platelet aggregatory substance (as the final concentration: […], or […]) was added to induce platelet aggregation. The blood platelet anti-aggregatory activities by the test compound was represented by ED50 (i.e. the concentration of the test compound inhibiting 50% of the platelet aggregation).

[2] = test system: platelet aggregation (collagen-induced); assay: Platelet anti-aggregatory activities, collagen-induced aggregation of washed platelet suspension; format: cell-based, Japanese white male rabbits; settings: for pIC50: Oryctolagus cuniculus, 0.05 h, rabbit platelet suspension, 3 min preincubation, read-out: Platelet anti-aggregatory activities ED50, collagen (concentration inhibiting 50% of the platelet aggregation)
Description: as §1, §2

[3] = test system: gastric lesion induced by ethanol; assay: Inhibitory effect on formation of gastric lesion induced by ethanol; format: in vivo, Male wistar rats; settings: rat, p.o, 1.5 hours later; for ED50: po, 1 ml of 99.5% ethanol orally 30 minutes after test compound, read-out: Inhibitory effect on formation of gastric lesion induced by ethanol ED50 (dose at which the ulcer was inhibited by 50%); for activity ratio, gastric lesion (PGE2 = 1): ratio of ED50 relative to PGE2
Description: Male wistar rats having a weight of from 170 to 270 g were put into individual cages and starved for 24 hours. During this starvation period, the rats were allowed to drink water freely. A test compound or PGE2 as a comparative compound was orally administered at a dose of 3 μg/kg, 10 μg/kg or 30 μg/kg, and 30 minutes later, 1 ml of 99.5% ethanol was orally administered to each rat. One hour or 4.5 hours after the ethanol administration, each rat was sacrificed by cervical vertebral dislocation, and the stomach was taken out. Each stomach was inflated with an amount of about 8 ml of 1% formaline solution and put into 1% formaline solution for 30 minutes to fix the gastric wall. After the fixing, the stomach was severed along the greater curvature, and the mucous membrane surface of the stomach was gently washed with flowing water. Then, the total length of lesions appearing on the gastric glandular portion was determined and used as the ulcer index.
The inhibitory effect of the test compound was represent by ED50 (i.e. the dose of the test compound at which the ulcer was inhibited by 50% relative to the ulcer index of the non-treated group). To the non-treated group, the solvent was administered.

SMILES	pIC50 [1]	activity ratio, ADP (PGI2 = 1) [1]	pIC50 [2]	activity ratio, collagen (PGI2 = 1) ([2]; ratio of ED50 relative to PGI2)	ED50 [3] [µg/kg]	activity ratio, gastric lesion (PGE2 = 1) [3]
CCC#CCC(C)(C)[C@H](O)C#C[C@@H]1[C@H]2CCC(/C=C\CCC(=O)O)=C[C@H]2C[C@H]1O [c]	8.89	2.2	9.24	5.9	0.97	9.3
CCC#CC[C@@H](C)[C@H](O)C#C[C@@H]1[C@H]2CCC(CCOCC(=O)O)=C[C@H]2C[C@H]1O [f]	–	–	–	–	2.1	4.3
CCC#CCC(C)(C)[C@H](O)C#C[C@@H]1[C@H]2CCC(CCOCC(=O)O)=C[C@H]2C[C@H]1O [g, 3-(3-oxa-4-carboxybutyl)-7-exo-(4,4-dimethyl-3α-hydroxy-1,6-nondiynyl)-8-endo-hydroxy-cisbicyclo[4.3.0]non-2-ene]	8.57	1.1	8.07	–	–	–
CCCCC[C@H](O)/C=C/[C@@H]1[C@H]2C/C(=C/CCCC(=O)O)O[C@H]2C[C@H]1O [PGI2, reference compound]	8.54	–	8.47	–	–	–
